The record followed here is patent publication US10428080B2, “TBK/IKK inhibitor compounds and uses thereof” (Merck Patent GmbH, priority 2015, dated 2019).

The target in one experiment is T1, TBK1 (Homo sapiens, UniProt Q9UHD2).
T1 sequence (Q9UHD2 1-729): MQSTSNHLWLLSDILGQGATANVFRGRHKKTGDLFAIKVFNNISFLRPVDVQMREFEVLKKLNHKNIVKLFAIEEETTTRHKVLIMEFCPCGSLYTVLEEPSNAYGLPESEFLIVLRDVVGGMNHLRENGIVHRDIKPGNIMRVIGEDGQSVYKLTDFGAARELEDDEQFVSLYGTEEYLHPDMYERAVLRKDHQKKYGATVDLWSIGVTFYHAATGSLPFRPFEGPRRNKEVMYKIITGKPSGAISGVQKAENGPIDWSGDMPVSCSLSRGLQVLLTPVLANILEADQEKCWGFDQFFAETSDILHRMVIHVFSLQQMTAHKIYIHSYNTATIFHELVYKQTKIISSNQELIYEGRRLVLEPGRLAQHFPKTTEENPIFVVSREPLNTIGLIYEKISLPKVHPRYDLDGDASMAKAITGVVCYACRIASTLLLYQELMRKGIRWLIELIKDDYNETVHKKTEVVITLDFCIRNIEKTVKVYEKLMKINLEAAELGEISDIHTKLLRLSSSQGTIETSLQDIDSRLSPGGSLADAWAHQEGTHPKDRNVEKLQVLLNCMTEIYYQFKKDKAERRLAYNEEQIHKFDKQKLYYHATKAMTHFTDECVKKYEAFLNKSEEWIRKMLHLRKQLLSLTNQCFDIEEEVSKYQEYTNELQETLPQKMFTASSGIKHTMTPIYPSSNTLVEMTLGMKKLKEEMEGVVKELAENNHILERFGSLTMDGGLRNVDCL
Put plainly: TBK Biochemical Assay. The following applies: read-out: TBK1 IC50. In outline: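 TBK1 enzyme and substrate incubated with compounds (10-point 1:4 dilution, top 30 uM final, 1% DMSO) for 90 min at 25° C, then stopped. Substrate/product peaks read by microfluidic mobility-shift (Caliper LabChip); 10 uM staurosporine as full-inhibition control.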

The target in the next experiment is T2, IKKε (Homo sapiens, UniProt Q14164).
T2 sequence (Q14164 1-716): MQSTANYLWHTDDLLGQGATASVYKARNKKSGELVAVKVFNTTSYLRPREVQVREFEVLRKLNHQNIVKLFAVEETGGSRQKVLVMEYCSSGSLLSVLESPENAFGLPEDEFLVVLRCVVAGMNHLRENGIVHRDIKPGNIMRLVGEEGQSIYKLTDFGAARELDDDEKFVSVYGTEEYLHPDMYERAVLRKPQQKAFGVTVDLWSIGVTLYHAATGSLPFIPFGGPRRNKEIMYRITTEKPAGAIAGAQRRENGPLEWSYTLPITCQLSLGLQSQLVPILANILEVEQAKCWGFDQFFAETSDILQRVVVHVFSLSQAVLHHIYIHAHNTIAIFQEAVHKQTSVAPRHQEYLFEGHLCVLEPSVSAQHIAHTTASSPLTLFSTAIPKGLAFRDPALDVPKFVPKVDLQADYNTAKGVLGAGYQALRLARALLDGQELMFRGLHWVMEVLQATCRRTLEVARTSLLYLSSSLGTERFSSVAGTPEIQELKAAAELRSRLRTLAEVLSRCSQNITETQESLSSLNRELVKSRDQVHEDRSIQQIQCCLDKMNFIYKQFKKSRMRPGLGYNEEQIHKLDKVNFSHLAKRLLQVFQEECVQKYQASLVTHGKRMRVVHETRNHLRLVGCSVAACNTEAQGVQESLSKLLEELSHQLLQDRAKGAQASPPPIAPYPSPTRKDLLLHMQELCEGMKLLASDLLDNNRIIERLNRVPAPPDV
Put plainly: IKKe Biochemical Assay. The following applies: read-out: IKKε IC50. In outline:
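Recombinant IKKε and substrate were incubated with compound (10-point 1:4 series, top 30 uM final, 1% DMSO) for 90 min at 25° C, then stopped. Substrate-to-product conversion was read by LabChip microfluidic mobility shift; 10 uM staurosporine served as full-inhibition wells.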

Experiment [1] concerns phosphorylation of the IRF-3 protein in MDA-MB-468 cells. Put plainly: pIRF3 immunocytochemistry cell based assay. The following applies: Homo sapiens; MDA-MB-468 cells, Poly(I:C) stimulation; read-out: pIRF3 IC50. In short, it runs like this: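 MDA-MB-468 cells got compounds (10-point, 3-fold from 10 uM) for 1 h at 37 °C, then 10 ug/ml Poly(I:C) for 2 h. Fixed, permeabilized cells were immunostained for pIRF3 with AlexaFluor488 and counterstained with PI. % phosphorylation was read by laser scanning cytometry, and IC50 curves were fitted.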

A word on the IC50: it is the concentration that inhibits the measured activity by half. In the case of `COc1cc(C(=O)N(C)C2CN3CCC2CC3)ccc1-c1cc2nccc(-c3ccc(OC4CCOCC4)c(C#N)c3)c2o1` (stereo not drawn) [Compound 472, N-(1-Aza-bicyclo[2.2.2]oct-3-yl)-4-{7-[3-cyano-4-(tetrahydro-pyran-4-yloxy)-phenyl]-furo[3,2-b]pyridin-2-yl}-3-methoxy-N-methyl-benzamide], the IC50 (at TBK1; at IKKε; in experiment [1]) was < 100 nM each time.

As for `COc1cc(C(=O)N(C)CCN2CCCC2)ccc1-c1cc2nccc(-c3ccc(OC4CCOCC4)c(C#N)c3)c2o1` [Compound 473, 4-{7-[3-Cyano-4-(tetrahydro-pyran-4-yloxy)-phenyl]-furo[3,2-b]pyridin-2-yl}-3-methoxy-N-methyl-N-(2-pyrrolidin-1-yl-ethyl)-benzamide], the IC50 (on TBK1; at IKKε; in experiment [1]) was < 100 nM each time.

As to `COc1cc(C(=O)N2CC3C2CCN3C)ccc1-c1cc2nccc(-c3ccc(OC4CCOCC4)c(C#N)c3)c2o1` (stereo not drawn) [Compound 474, 5-{2-[2-Methoxy-4-(2-methyl-2,6-diaza-bicyclo[3.2.0]heptane-6-carbonyl)-phenyl]-furo[3,2-b]pyridin-7-yl}-2-(tetrahydro-pyran-4-yloxy)-benzonitrile], the IC50 (at TBK1; on IKKε; in experiment [1]) was < 100 nM in each case.

Regarding `COc1cc(C(=O)NC2(CO)CCCC2)ccc1-c1cc2nccc(-c3ccc(OC4CCOCC4)c(C#N)c3)c2o1` [Compound 475, 4-{7-[3-Cyano-4-(tetrahydro-pyran-4-yloxy)-phenyl]-furo[3,2-b]pyridin-2-yl}-N-(1-hydroxymethyl-cyclopentyl)-3-methoxy-benzamide], the IC50 is < 100 nM on TBK1, < 100 nM on IKKε and 100 to 1000 nM in experiment [1].

`COc1cc(C(=O)N[C@H]2CCCC[C@H]2O)ccc1-c1cc2nccc(-c3ccc(OC4CCOCC4)c(C#N)c3)c2o1` [Compound 476, 4-{7-[3-Cyano-4-(tetrahydro-pyran-4-yloxy)-phenyl]-furo[3,2-b]pyridin-2-yl}-N-((1S,2R)-2-hydroxy-cyclohexyl)-3-methoxy-benzamide]: the IC50 was < 100 nM on TBK1, < 100 nM on IKKε and 100 to 1000 nM in experiment [1].

With `COc1cc(C(=O)NCCN2CCC2)ccc1-c1cc2nccc(-c3ccc(OC4CCOCC4)c(C#N)c3)c2o1` [Compound 477, N-(2-Azetidin-1-yl-ethyl)-4-{7-[3-cyano-4-(tetrahydro-pyran-4-yloxy)-phenyl]-furo[3,2-b]pyridin-2-yl}-3-methoxy-benzamide], the figures for the half-inhibitory concentration (IC50) (at TBK1; at IKKε; in experiment [1]) were < 100 nM, < 100 nM and 100 to 1000 nM, respectively.

Regarding `COc1cc(C(=O)N2CCCCN2C)ccc1-c1cc2nccc(-c3ccc(OC4CCOCC4)c(C#N)c3)c2o1` [Compound 478, 5-{2-[2-Methoxy-4-(2-methyl-tetrahydro-pyridazine-1-carbonyl)-phenyl]-furo[3,2-b]pyridin-7-yl}-2-(tetrahydro-pyran-4-yloxy)-benzonitrile], the IC50 at TBK1 is < 100 nM; at IKKε it was < 100 nM; in experiment [1], 100 to 1000 nM.

`CCC(CO)(CO)NC(=O)c1ccc(-c2cc3nccc(-c4ccc(OC5CCOCC5)c(C#N)c4)c3o2)c(OC)c1` [Compound 479, N-(1,1-Bis-hydroxymethyl-propyl)-4-{7-[3-cyano-4-(tetrahydro-pyran-4-yloxy)-phenyl]-furo[3,2-b]pyridin-2-yl}-3-methoxy-benzamide]: the IC50 was < 100 nM on TBK1, < 100 nM at IKKε and 100 to 1000 nM in experiment [1].

Take `COc1cc(C(=O)N(C)C(C)(C)CO)ccc1-c1cc2nccc(-c3ccc(OC4CCOCC4)c(C#N)c3)c2o1` [Compound 480, 4-{7-[3-Cyano-4-(tetrahydro-pyran-4-yloxy)-phenyl]-furo[3,2-b]pyridin-2-yl}-N-(2-hydroxy-1,1-dimethyl-ethyl)-3-methoxy-N-methyl-benzamide]: the IC50 on TBK1 was < 100 nM; at IKKε, < 100 nM; in experiment [1], 100 to 1000 nM.

As for `COc1cc(C(=O)N(C)C(C)(C)C)ccc1-c1cc2nccc(-c3ccc(OC4CCOCC4)c(C#N)c3)c2o1` [Compound 481, N-tert-Butyl-4-{7-[3-cyano-4-(tetrahydro-pyran-4-yloxy)-phenyl]-furo[3,2-b]pyridin-2-yl}-3-methoxy-N-methyl-benzamide], the results for the IC50 (at TBK1; at IKKε; in experiment [1]) were < 100 nM, < 100 nM and 100 to 1000 nM, respectively.

With `COc1cc(C(=O)N2CCCCN2)ccc1-c1cc2nccc(-c3ccc(OC4CCOCC4)c(C#N)c3)c2o1` [Compound 482, 5-{2-[2-Methoxy-4-(tetrahydro-pyridazine-1-carbonyl)-phenyl]-furo[3,2-b]pyridin-7-yl}-2-(tetrahydro-pyran-4-yloxy)-benzonitrile], the IC50 on TBK1 was < 100 nM; on IKKε it was < 100 nM; in experiment [1], 100 to 1000 nM.

In the case of `COc1cc(C(=O)N(C)CCS(C)(=O)=O)ccc1-c1cc2nccc(-c3ccc(OC4CCOCC4)c(C#N)c3)c2o1` [Compound 483, 4-{7-[3-Cyano-4-(tetrahydro-pyran-4-yloxy)-phenyl]-furo[3,2-b]pyridin-2-yl}-N-(2-methanesulfonyl-ethyl)-3-methoxy-N-methyl-benzamide], the IC50 (on TBK1; on IKKε; in experiment [1]) was < 100 nM each time.

As to `COc1cc(C(=O)N(C)C)ccc1-c1cc2nccc(-c3ccc(OC4CN(C)C4)c(C#N)c3)c2o1` [Compound 484, 4-{7-[3-Cyano-4-(1-methyl-azetidin-3-yloxy)-phenyl]-furo[3,2-b]pyridin-2-yl}-3-methoxy-N,N-dimethyl-benzamide], the IC50 (at TBK1; at IKKε; in experiment [1]) was < 100 nM throughout.

Turning to `COc1cc(C(=O)N(C)C)ccc1-c1cc2nccc(-c3ccc(OC4CN(C(C)C)C4)c(C#N)c3)c2o1` [Compound 485, 4-{7-[3-Cyano-4-(1-isopropyl-azetidin-3-yloxy)-phenyl]-furo[3,2-b]pyridin-2-yl}-3-methoxy-N,N-dimethyl-benzamide], the 50% inhibitory concentration (IC50) (on TBK1; on IKKε; in experiment [1]) was 1000 to 5000 nM throughout.

Regarding `COc1cc(C(=O)N(C)C)cnc1-c1cc2nccc(-c3ccc(OC4CCOCC4F)c(C#N)c3)c2o1` (stereo not drawn) [Compound 486, 6-{7-[3-Cyano-4-(3-fluoro-tetrahydro-pyran-4-yloxy)-phenyl]-furo[3,2-b]pyridin-2-yl}-5-methoxy-N,N-dimethyl-nicotinamide], the IC50 (at TBK1; on IKKε; in experiment [1]) was < 100 nM in each case.

Consider `COc1cc(C(=O)N(C)C)cnc1-c1cc2nccc(-c3ccc(OC4CCNC4)c(C#N)c3)c2o1` (stereo not drawn) [Compound 487, 6-{7-[3-Cyano-4-(pyrrolidin-3-yloxy)-phenyl]-furo[3,2-b]pyridin-2-yl}-5-methoxy-N,N-dimethyl-nicotinamide], for which the concentration for half-maximal inhibition (IC50) (on TBK1; at IKKε; in experiment [1]) was 100 to 1000 nM throughout.
